Results taken from article PMC11189301, “Structure of the human outer kinetochore KMN network complex” (Nature Structural & Molecular Biology, 2024).
Each block holds one molecule with its values, some of them ahead of it.

Columns and labels:
[1] = tested on: MIS12^Dsn1-W96A R97A R98A; assay: Analytical SEC, CENP-C^1–71 binding to MIS12C with WRR linchpin substitutions; parameters: species or system Homo sapiens; conditions: 4 µM CENP-C^1–71-MBP + 4 µM MIS12^Dsn1-W96A R97A R98A; 20 mM HEPES pH 7.8, 150 mM NaCl, 0.5 mM TCEP; Superdex S200; SDS-PAGE; at least two repeats
Method: (§1) Four micromolar of CENP-C^1–71-MBP was mixed with 4 µM of either wild-type MIS12C or three mutants (MIS12C^ΔN-Dsn1, MIS12^Dsn1-W96A R97A R98A, MIS12C^Dsn1-S100D S109D) in a buffer of 20 mM HEPES (pH 7.8), 150 mM NaCl and 0.5 mM TCEP, and 50 µl of the mixture was loaded onto a Superdex S200 size-exclusion column (Cytiva).
(§2) Coloured by pLDDT score. e AlphaFold2 Multimer prediction of the K. lactis MIS12C coloured by subunit with insert highlighting conservation of the auto-inhibitory Dsn1^N mechanism. Source data

Wild-type MIS12C = assay: Analytical size-exclusion chromatography (SEC), CENP-C^1–71 binding to wild-type MIS12C; parameters: species or system Homo sapiens; conditions: 4 µM CENP-C^1–71-MBP + 4 µM wild-type MIS12C; 20 mM HEPES pH 7.8, 150 mM NaCl, 0.5 mM TCEP; Superdex S200; SDS-PAGE; at least two repeats
Method: as §1, §2

MIS12 complex = tested on: MIS12 complex; parameters: method as in PMID 24530301; conditions: compared with Nsl1 C-terminal peptide (residues 258–281); cited from earlier work
Knl1 = assay: SEC assessment of MIS12C^Nsl1ΔC binding to Knl1; parameters: species or system Homo sapiens; conditions: MIS12C^Nsl1ΔC (Nsl1 residues 265–281 deleted) + KNL1 at 4 µM each; 20 mM HEPES pH 7.8, 150 mM NaCl, 0.5 mM TCEP; Superose 6; at least two repeats
Method: Assessment of substitutions in the MIS12C–KNL1 interfaces
To test the effect of substitutions in the MIS12C–KNL1 interfaces, either wild-type MIS12C or MIS12C^Nsl1ΔC was mixed with either wild-type KNL1 or two mutants (KNL1^R2248D […] (KNL1^mut1), KNL1^S2270R S2272W (KNL1^mut2)) at 4 µM each in a buffer of 20 mM HEPES (pH 7.8), 150 mM NaCl and 0.5 mM TCEP, and 50 µl was loaded onto a Superose 6 size-exclusion column (Cytiva).
Extended Data Fig. 9 Biochemical validation of the MIS12C:Knl1 interface. a Coomassie blue-stained SDS-PAGE gels of the MIS12C:Knl1 interaction reconstitutions. MIS12C (WT) and MIS12C with Nsl1 truncated at the C-terminus (1–264 Nsl1 construct, MIS12C^Nsl1ΔC) were tested in their ability to bind either wild-type RWD domains of Knl1 (2131–2337 construct, labelled Knl1 for simplicity) or Knl1 mutants (R2248D/W2249S substitutions, Knl1^mut1, and S2270R/S2272W substitutions, Knl1^mut2, as well as S2270R/S2272W/R2248A/W2249S substitutions, Knl1^mut3). The binding experiments were repeated at least two independent times with identical results. The gels are aligned according to the fraction number of the protein sample eluted from the size exclusion column. b SEC elution chromatograms of all of the experiments described in (a). Source data

CENP-C^1–71 binding by SEC, in words [1]: binding of almost all CENP-C
CENP-C^1–71 binding by SEC, in words (Wild-type MIS12C): only partially bound
Molecule: CENP-C^1–71: CENP-C residues 1–71 fused to a C-terminal maltose-binding protein (MBP) tag, expressed in E. coli

Molecule: Knl1: outer kinetochore protein Knl1; prior affinity data of ref 11
affinity of Knl1 for the whole MIS12 complex, in words (MIS12 complex): only slightly higher than its affinity for a peptide modeled on the C terminus of Nsl1 alone (residues 258–281)

B1: MIS12C^Nsl1ΔC: MIS12C with Nsl1 truncated at the C-terminus (1–264 Nsl1 construct; residues 265–281 deleted) (protein)
chain 1: MSVDPMTYEAQFFGFTPQTCMLRIYIAFQDYLFEVMQAVEQVILKKLDGIPDCDISPVQIRKCTEKFLCFMKGHFDNLFSKMEQLFLQLILRIPSNILLPEDKCKETPYSEEDFQHLQKEIEQLQEKYKTELCTKQALLAELEEQKIVQAKLKQTLTFFDELHNVGRDHGTSDFRESLVSLVQNSRKLQNIRDNVEKESKRLKIS
chain 2: MAEASSANLGSGCEEKRHEGSSSESVPPGTTISRVKLLDTMVDTFLQKLVAAGSYQRFTDCYKCFYQLQPAMTQQIYDKFIAQLQTSIREEISDIKEEGNLEAVLNALDKIVEEGKVRKEPAWRPSGIPEKDLHSVMAPYFLQQRDTLRRHVQKQEAENQQLADAVLAGRRQVEELQLQVQAQQQAWQALHREQRELVAVLREPE
chain 3: MTSVTRSEIIDEKGPVMSKTHDHQLESSLSPVEVFAKTSASLEMNQGVSEERIHLGSSPKKGGNCDLSHQERLQSKSLHLSPQEQSASYQDRRQSWRRASMKETNRRKSLHPIHQGITELSRSISVDLAESKRLGCLLLSSFQFSIQKLEPFLRDTKGFSLESFRAKASSLSEELKHFADGLETDGTLQKCFEDSNGKASDFSLEASVAEMKEYITKFSLERQTWDQLLLHYQQEAKEILSRGSTEAKITEVKVEPMTYLGSSQNEVLNTKPDYQKILQNQSKVFDCMELVMDELQGSVKQLQAFMDESTQCFQKVSVQLGKRSMQQLDPSPARKLLKLQLQNPPAIHGSGSGSCQ
chain 4: MAGSPELVVLDPPWDKELAAGTESQALVSATPREDFRVRCTSKRAVTEMLQLCGRFVQKLGDALPEEIREPALRDAQWTFESAVQENISINGQAWQEASDNCFMDSDIKVLEDQFDEIIVDIATKRKQYPRKILECVIKTIKAKQEILKQYHPVVHPLDLKYDPDPAPHMENLKCRGETVAKEISEAMKSLPALIEQGEGFSQVLRMQPVIHLQRIHQEVFSSCHRKPDAKPENFITQIETTPTETASRKTSDMVLKRKQTKDC
modifications: left off: double strep II (DS), C-terminal, state not stated
MIS12C–Knl1 interaction by SEC, in words (Knl1): reduced the interaction strength between Knl1 and MIS12C
